The values that follow come from article PMC8081663, “A biosensor for the direct visualization of auxin” (Nature, 2021).

What all share (assay): ITC, one-site model
Assay type in all cases: binding
(In general: Isothermal titration calorimetry measures the heat released or taken up as one component is titrated into another.)

For assay [1], the target named is T1, TrpR (Escherichia coli, UniProt P0A881).
T1 construct: TrpR without fluorescent proteins, pET21b(+), expressed in E. coli BL21(DE3), NiIMAC and Superdex S75; homodimer; template Trp-CTY / Trp-CTYT sensors (Addgene 13533, 13534)
The source says:
(§1) ITC, one-site model on TrpR

The target in assay [2] is T2, TrpR (Escherichia coli, UniProt P0A881, N87G/S88Y/T44L/T81M).
T2 construct: TrpR without fluorescent proteins, pET21b(+), expressed in E. coli BL21(DE3), NiIMAC and Superdex S75; homodimer; template Trp-CTY / Trp-CTYT sensors (Addgene 13533, 13534)
Description: as §1

The target of assay [3] is T3, TrpR (Escherichia coli, UniProt P0A881, S88Y/T44L).
T3 construct: TrpR without fluorescent proteins, pET21b(+), expressed in E. coli BL21(DE3), NiIMAC and Superdex S75; homodimer; template Trp-CTY / Trp-CTYT sensors (Addgene 13533, 13534)
Description: as §1

The target of assay [4] is T4, TrpR (Escherichia coli, UniProt P0A881, S88Y/T44L/T81M).
T4 construct: TrpR without fluorescent proteins, pET21b(+), expressed in E. coli BL21(DE3), NiIMAC and Superdex S75; homodimer; template Trp-CTY / Trp-CTYT sensors (Addgene 13533, 13534)
Description: as §1

The target of assay [5] is T5, TrpR (Escherichia coli, UniProt P0A881, S88Y).
T5 construct: TrpR without fluorescent proteins, pET21b(+), expressed in E. coli BL21(DE3), NiIMAC and Superdex S75; homodimer; template Trp-CTY / Trp-CTYT sensors (Addgene 13533, 13534)
Description: as §1

The target in assay [6] is T6, TrpR (Escherichia coli, UniProt P0A881, M42F/N87G/S88Y/T44L/T81M).
T6 construct: TrpR without fluorescent proteins, pET21b(+), expressed in E. coli BL21(DE3), NiIMAC and Superdex S75; homodimer; template Trp-CTY / Trp-CTYT sensors (Addgene 13533, 13534)
Description: as §1

For orientation: Kd means the constant that tells how readily two partners part at equilibrium. For `N#CCc1c[nH]c2ccccc12` [IAN], the Kd is 63.7 ± 1.7 µM at TrpR [1]; 46.4 ± 1.7 µM at TrpR [2]; 19.5 ± 0.6 µM on TrpR [3]; 33.6 ± 0.2 µM at TrpR [4]; 17.9 ± 0.6 µM on TrpR [5]; 14.3 ± 0.4 µM at TrpR [6].
With `O=C(O)Cc1c[nH]c2ccccc12` [IAA], the dissociation constant (Kd) at TrpR [1] was found to be 137.4 ± 0.5 µM; at TrpR [2] it was 1.6 µM; at TrpR [3] it was 7.8 ± 0.3 µM; on TrpR [4], 3 ± 0.1 µM; at TrpR [5], 14.6 ± 0.1 µM; on TrpR [6], 1.5 ± 0.1 µM.
The compound `N[C@@H](Cc1c[nH]c2ccccc12)C(=O)O` [TRP] displayed a Kd on TrpR [1] of 25 ± 0.7 µM.
